Here are results for 26 molecules from ChEMBL document CHEMBL3351221, “Synthetic derivatives of aromatic abietane diterpenoids and their biological activities” (Eur J Med Chem, 2014).

SMILES strings stand for the structures. In brackets after ≈: the same amount, converted by molar mass.

Assay [1] has as its system MCF7. The assay is described as follows: Cytotoxicity against human MCF7 cells. In kind it is functional, cell-based.
The subject of assay [2] is SMMC-7721. In words: Cytotoxicity against human SMMC7721 cells. The format is functional, cell-based.
Assay [3] deals with C6. In words: Cytotoxicity against rat C6 cells. The format is functional, cell-based.
Assay [4] deals with A549. The assay is described as follows: Cytotoxicity against human A549 cells. The format is functional, cell-based.
Assay [5] has as its system Escherichia coli. In words: Antimicrobial activity against Escherichia coli. In kind it is functional.
The subject of assay [6] is Staphylococcus aureus. The assay is described as follows: Antimicrobial activity against Staphylococcus aureus. In kind it is functional.
For assay [7], the system named is AGS. In words: Cytotoxicity against human AGS cells. In kind it is cell-based.
Assay [8] has as its system MRC5. The assay is described as follows: Cytotoxicity against human MRC5 cells. The format is cell-based.
Assay [9] has as its system Mus musculus. In words: Gastroprotective activity in mouse assessed as reduction in HCl/EtOH-induced gastric lesions at 100 mg/kg. The format is functional. The following applies: Stomach.
Assay [10] can be described thus: Cytotoxicity against human HL60 cells. The format is functional, cell-based. The following applies: HL-60.
Assay [11] in a line: Cytotoxicity against human Hey-1B cells. The format is functional, cell-based.
The test system of assay [12] is Mus musculus. The assay is described as follows: Gastroprotective activity in mouse assessed as reduction in HCl/EtOH-induced gastric lesions at 20 mg/kg. The format is functional. The following applies: Stomach.
Assay [13] is described as follows: Cytotoxicity against human PC3 cells. In kind it is functional, cell-based. The following applies: PC-3.

What is called IC50 is the concentration needed to halve the response being measured. `CC(C)c1ccc2c(c1)CC[C@H]1[C@](C)(C/N=C/c3ccc(C(F)(F)F)cc3)CCC[C@]21C`: the IC50 in assay [1] stood at 10.7 µM; in assay [2], 6.65 µM; in [3], 0.81 µM; in assay [4] it was 0.75 µM.

What is called MIC is the lowest concentration that inhibits growth of the organism. Higher therefore signals a less susceptible organism. In the case of `CC(C)c1ccc2c(c1)CC[C@H]1[C@](C)(C[N+](CCO)(CCO)CCO)CCC[C@]21C.[Cl-]`, the MIC is 250 µg/mL in [5] and 7.81 µg/mL in [6].

By inhibition in vivo is commonly meant the drop in the measured response relative to a control, in per cent. Regarding `Cc1cc(C)cc(NC(=O)[C@]2(C)CCC[C@]3(C)c4ccc(C(C)C)cc4CC[C@@H]23)c1`, the IC50 in assay [7] and in assay [8] was above 1000 µM each time. Further, the inhibition in vivo at 100 mg/kg in assay [9] came to 67%.

In turn, `COC(=O)[C@H](CO)NC(=O)[C@]1(C)CCC[C@]2(C)c3ccc(C(C)C)cc3CC[C@@H]12` gave an IC50 in assay [10] of 2.3 µM.

`CC(C)c1ccc2c(c1)CC[C@H]1[C@](C)(C(=O)Nc3ccc(I)cc3)CCC[C@]21C`: the IC50 in assay [7] and in assay [8] was above 1000 µM each time. In assay [9], the inhibition in vivo at 100 mg/kg stood at 67%.

Turning to `COc1ccc(/C=N/C[C@]2(C)CCC[C@]3(C)c4ccc(C(C)C)cc4CC[C@@H]23)cc1`, the IC50 in [1] was 10.7 µM; in [2], 6.65 µM; in assay [3], 0.81 µM; in assay [4], 0.75 µM.

In turn, `COC(=O)[C@@H](NC(=O)[C@]1(C)CCC[C@]2(C)c3ccc(C(C)C)cc3CC[C@@H]12)C(C)C` registered an IC50 in [10] of 2.3 µM.

On to `CC(=O)NC[C@]1(C)CCC[C@]2(C)c3cc(/N=C/c4ccc(O)cc4O)c(C(C)C)cc3CC[C@@H]12`, for which the IC50 in [11] worked out at 15 µg/mL (≈ 32.4 µM).

Molecule `COC(=O)[C@H](C)NC(=O)[C@]1(C)CCC[C@]2(C)c3ccc(C(C)C)cc3CC[C@@H]12` came in with an IC50 in [10] of 2.3 µM.

For the molecule `CC(Cl)C(=O)Oc1cc2c(cc1C(C)C)CC[C@H]1C(C)(C)CCC[C@]21C` (stereo partly drawn), the values for the IC50 in assay [7] and in [8] were 18 µM and 19 µM, respectively. Also, the inhibition in vivo at 20 mg/kg in assay [12] is 76%.

`COc1ccc(NC(=O)[C@]2(C)CCC[C@]3(C)c4ccc(C(C)C)cc4CC[C@@H]23)cc1`: the IC50 in assay [7] and in [8] was above 1000 µM in each case. In addition, in assay [9], the inhibition in vivo at 100 mg/kg turned out to be 67%.

For the molecule `CC(=O)NC[C@]1(C)CCC[C@]2(C)c3cc(/N=C/c4cc(O)ccc4O)c(C(C)C)cc3CC[C@@H]12`, the 50% inhibitory concentration (IC50) in [11] came out at 15 µg/mL (≈ 32.4 µM).

Regarding `CCC(=O)Oc1cc2c(cc1C(C)C)CC[C@H]1C(C)(C)CCC[C@]21C`, the IC50 in [7] came out at 18 µM; in assay [8], 19 µM.

For the molecule `CC(C)c1ccc2c(c1)CC[C@H]1[C@](C)(C[N+](C)(CCO)CCO)CCC[C@]21C.COS(=O)(=O)[O-]`, the MIC in [5] was found to be 250 µg/mL; in [6] it was 7.81 µg/mL.

On to `COC(=O)C[C@H](NC(=O)[C@]1(C)CCC[C@]2(C)c3ccc(C(C)C)cc3CC[C@@H]12)C(=O)OC`, for which the midpoint of inhibition in assay [10], the IC50, lay at 2.3 µM.

Turning to `CC(C)c1ccc2c(c1)CC[C@H]1[C@](C)(C[N+](CCO)(CCO)Cc3ccccc3)CCC[C@]21C.[Cl-]`, the results for the MIC in [5] and in assay [6] were 250 µg/mL and 7.81 µg/mL, respectively.

For `CC(C)c1ccc2c(c1)CC[C@H]1[C@](C)(CNCCO)CCC[C@]21C.Cl`, the results for the MIC in assay [5] and in assay [6] were 250 µg/mL and 7.81 µg/mL, respectively.

`CC(C)c1ccc2c(c1)CC[C@H]1[C@](C)(NC(=O)Nc3ccc(F)cc3)CCC[C@]21C` returned an IC50 in [2] of 8.8 µM.

For the molecule `CC(C)c1ccc2c(c1)CC[C@H]1[C@](C)(C[N+](C)(C)C)CCC[C@]21C.COS(=O)(=O)[O-]`, the MIC in assay [5] was 250 µg/mL; in [6], 7.81 µg/mL.

For `CC(C)c1cc2c(cc1OC(=O)c1cccnc1)[C@@]1(C)CCCC(C)(C)[C@@H]1CC2`, the 50% inhibitory concentration (IC50) in assay [7] is 22 µM; in [8], above 1000 µM. Besides, the inhibition in vivo at 20 mg/kg in assay [12] is 71%.

Regarding `CC(=O)Oc1cc2c(cc1C(C)C)CC[C@H]1C(C)(C)CCC[C@]21C`, the IC50 in [7] stood at 18 µM; in assay [8] it was 19 µM.

For `CC(C)c1cc2c(cc1[N+](=O)[O-])[C@@]1(C)CCC[C@@](C)(CNC(=O)c3ccccc3Cl)[C@@H]1CC2`, the IC50 stood at 11.3 µg/mL (≈ 24.1 µM) in assay [11] and 5.7 µg/mL (≈ 12.2 µM) in assay [13].

With `CC(C)c1ccc2c(c1)CC[C@H]1[C@](C)(C/N=C/c3cccc(F)c3)CCC[C@]21C`, the IC50 in assay [1] stood at 10.7 µM; in assay [2], 6.65 µM; in [3], 0.81 µM; in assay [4], 0.75 µM.

As to `CC(C)c1ccc2c(c1)CC[C@H]1[C@](C)(C(=O)Nc3ccccc3Cl)CCC[C@]21C`, the IC50 in assay [7] and in [8] was above 1000 µM each time. Besides, the inhibition in vivo at 100 mg/kg in assay [9] stood at 67%.

In the case of `CC(=O)OC[C@H]1O[C@@H](Oc2cc3c(cc2C(C)C)CC[C@H]2C(C)(C)CCC[C@]32C)[C@H](OC(C)=O)[C@@H](OC(C)=O)[C@@H]1OC(C)=O`, the IC50 in [7] and in [8] was above 1000 µM throughout. For the same molecule, the inhibition in vivo at 20 mg/kg in assay [12] stood at 72%.

As for `CC(C)c1cc2c(cc1OC=O)[C@@]1(C)CCCC(C)(C)[C@@H]1CC2`, the IC50 in assay [7] stood at 18 µM; in assay [8] it was 19 µM.
